Test results published in ChEMBL document CHEMBL5316334, “Structure-Based Design of Novel Alkynyl Thio-Benzoxazepinone Receptor-Interacting Protein Kinase-1 Inhibitors: Extending the Chemical Space from the Allosteric to ATP Binding Pockets” (J Med Chem, 2023).
pEC50, pKd: −log10 of the molar value. Active and inactive are the calls of the source. The rule behind the calls is not given here.

Assays:
HT-29 [1] = test: Cytotoxicity against human HT-29 cells assessed as reduction in cell viability measured for 16 to 24 hrs by Cell-titer-glo assay; format: functional; settings: time 16-24 hrs
HT-29 [2] = test: Cytotoxicity against human HT-29 cells assessed as reduction in cell viability at 100 uM measured for 16 to 24 hrs by Cell-titer-glo assay; format: functional, cell-based; settings: time 16-24 hrs
HT-29 [3] = test: Anti-necroptosis activity against human HT-29 cells assessed as inhibition of TSZ-induced necroptosis preincubated for 30 mins followed by compound addition and measured for 16 hrs by Cell-titer-glo assay; format: functional, cell-based
[4] = molecular target: T1, Receptor-interacting serine/threonine-protein kinase 1 (Homo sapiens, UniProt Q13546); test: Binding affinity to recombinant RIPK1 (unknown origin) assessed as dissociation constant by kinomescan assay
T1 sequence (Q13546 whole entry): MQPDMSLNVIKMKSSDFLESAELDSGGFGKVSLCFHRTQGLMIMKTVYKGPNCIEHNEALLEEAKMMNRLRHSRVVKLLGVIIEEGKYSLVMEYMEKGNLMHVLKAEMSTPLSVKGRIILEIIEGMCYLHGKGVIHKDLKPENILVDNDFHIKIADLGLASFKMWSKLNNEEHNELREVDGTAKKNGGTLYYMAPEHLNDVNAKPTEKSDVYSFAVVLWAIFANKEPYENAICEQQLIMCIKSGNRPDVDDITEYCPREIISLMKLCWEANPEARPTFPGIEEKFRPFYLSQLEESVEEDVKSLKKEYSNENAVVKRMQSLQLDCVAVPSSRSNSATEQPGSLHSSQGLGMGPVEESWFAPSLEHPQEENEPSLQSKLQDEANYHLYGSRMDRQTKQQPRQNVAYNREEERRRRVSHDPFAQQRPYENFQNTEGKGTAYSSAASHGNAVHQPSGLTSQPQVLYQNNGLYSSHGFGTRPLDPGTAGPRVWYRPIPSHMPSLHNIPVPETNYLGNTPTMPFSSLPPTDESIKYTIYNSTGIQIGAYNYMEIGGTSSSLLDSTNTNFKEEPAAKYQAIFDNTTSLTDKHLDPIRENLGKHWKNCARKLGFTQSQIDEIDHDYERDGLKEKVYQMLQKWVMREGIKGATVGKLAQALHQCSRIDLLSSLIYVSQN

L929 = test: Anti-necroptosis activity against TNFalpha-induced mouse L929 cells assessed as cell viability preincubated for 1 hr followed by TNFalpha stimulation and measured after 18 hrs by Cell-titer-glo assay; format: functional, cell-based
HT-29 [5] = test: Anti-necroptosis activity against human HT-29 cells assessed as inhibition of TSZ-induced necroptosis pretreated with compound followed by TSZ induction and measured for 12 hrs by Cell-titer-glo assay; format: functional, cell-based; settings: dose 0.63-100 nM
[6] = Half life in mouse; format: ADME, organism-based; settings: in vivo

Row | pKd [4] | half-life [6] [min] | Compound | CC50 (HT-29 [1]) [nM] | Activity (HT-29 [2]) | pEC50 (HT-29 [3]) | pEC50 (L929) | Activity (HT-29 [5])
1 |  |  | CN1C(=S)[C@@H](NC(=O)c2n[nH]c(Cc3ccccc3)n2)COc2ccc(C#Cc3ccccc3[N+](=O)[O-])cc21 | > 100000 | inactive | 7.82 |  | 
2 |  |  | Cc1ccccc1C#Cc1ccc2c(c1)N(C)C(=S)[C@@H](NC(=O)c1n[nH]c(Cc3ccccc3)n1)CO2 | > 100000 | inactive | 7.63 |  | 
3 |  |  | CN1C(=S)[C@@H](NC(=O)c2n[nH]c(Cc3ccccc3)n2)COc2ccc(C#Cc3ccccc3Cl)cc21 | > 100000 | inactive | 7.85 |  | 
4 | 6.64 |  | CN1C(=S)[C@@H](NC(=O)c2n[nH]c(Cc3ccccc3)n2)COc2ccc(C#Cc3cccc([N+](=O)[O-])c3)cc21 | > 100000 | inactive | 8.04 |  | 
5 |  |  | CN1C(=S)[C@@H](NC(=O)c2n[nH]c(Cc3ccccc3)n2)COc2ccc(C#Cc3ccc(F)cc3)cc21 | > 100000 | inactive | 7.65 |  | 
6 |  |  | CN1C(=S)[C@@H](NC(=O)c2n[nH]c(Cc3ccccc3)n2)COc2ccc(C#Cc3ccc(C(F)(F)F)cc3)cc21 | > 100000 | inactive | 7.59 |  | 
7 |  |  | CN1C(=S)[C@@H](NC(=O)c2n[nH]c(Cc3ccccc3)n2)COc2ccc(C#Cc3cccc(F)c3)cc21 | > 100000 | inactive | 7.65 |  | 
8 |  |  | CN1C(=S)[C@@H](NC(=O)c2n[nH]c(Cc3ccccc3)n2)COc2ccc(C#Cc3ccccc3)cc21 | > 100000 | inactive | 7.90 |  | 
9 |  |  | CN1C(=S)[C@@H](NC(=O)c2n[nH]c(Cc3ccccc3)n2)COc2ccc(C#Cc3ccccc3OC(F)(F)F)cc21 | > 100000 | inactive | 7.44 |  | 
10 |  |  | CN1C(=O)[C@@H](NC(=O)c2nnc(Cc3ccccc3)[nH]2)COc2ccc(C#CC(C)(C)O)cc21 [OCADUSERTIB] |  |  |  | > 9.00 | 
11 |  |  | Cc1ccc(C#Cc2ccc3c(c2)N(C)C(=S)[C@@H](NC(=O)c2n[nH]c(Cc4ccccc4)n2)CO3)cc1 | > 100000 | inactive | 7.76 |  | Dose-Dependent Effect
12 |  |  | CN1C(=S)[C@@H](NC(=O)c2n[nH]c(Cc3ccccc3)n2)COc2ccc(C#Cc3cccc(Cl)c3)cc21 | > 100000 | inactive | 7.62 |  | 
13 | 7.40 |  | CN1C(=S)[C@@H](NC(=O)c2n[nH]c(Cc3ccccc3)n2)COc2ccc(C#CC3CC3)cc21 | > 100000 |  | 8.06 |  | 
14 |  |  | CN1C(=S)[C@@H](NC(=O)c2n[nH]c(Cc3ccccc3)n2)COc2ccc(C#Cc3cccc(C(F)(F)F)c3)cc21 | > 100000 | inactive | 7.32 |  | 
15 |  |  | COc1ccc(C#Cc2ccc3c(c2)N(C)C(=S)[C@@H](NC(=O)c2n[nH]c(Cc4ccccc4)n2)CO3)cc1 | > 100000 | inactive | 6.52 |  | 
16 |  |  | CN1C(=S)[C@@H](NC(=O)c2n[nH]c(Cc3ccccc3)n2)COc2ccc(C#Cc3ccccc3C(F)(F)F)cc21 | > 100000 | inactive | 7.38 |  | 
17 |  |  | CN1C(=S)[C@@H](NC(=O)c2n[nH]c(Cc3ccccc3)n2)COc2ccc(C#Cc3ccc(OC(F)(F)F)cc3)cc21 | > 100000 | inactive | 7.98 |  | 

Row | pKd [4] | half-life [6] [min] | Compound | CC50 (HT-29 [1]) [nM] | Activity (HT-29 [2]) | pEC50 (HT-29 [3]) | pEC50 (L929) | Activity (HT-29 [5])
18 |  |  | CN1C(=S)[C@@H](NC(=O)c2n[nH]c(Cc3ccccc3)n2)COc2ccc(C#C[Si](C)(C)C)cc21 | > 100000 | inactive | 7.69 |  | 
19 | 6.82 |  | CN1C(=S)[C@@H](NC(=O)c2n[nH]c(Cc3ccccc3)n2)COc2ccc(C#Cc3ccc([N+](=O)[O-])cc3)cc21 | > 100000 | inactive | 8.17 |  | 
20 |  |  | COc1cccc(C#Cc2ccc3c(c2)N(C)C(=S)[C@@H](NC(=O)c2n[nH]c(Cc4ccccc4)n2)CO3)c1 | > 100000 | inactive | 7.95 |  | 
21 |  |  | COc1ccccc1C#Cc1ccc2c(c1)N(C)C(=S)[C@@H](NC(=O)c1n[nH]c(Cc3ccccc3)n1)CO2 | > 100000 | inactive | 7.97 |  | 
22 | 7.08 |  | COC(=O)c1ccc(C#Cc2ccc3c(c2)N(C)C(=S)[C@@H](NC(=O)c2n[nH]c(Cc4ccccc4)n2)CO3)cc1 | > 100000 | inactive | 8.24 |  | 
23 |  |  | Cc1cccc(C#Cc2ccc3c(c2)N(C)C(=S)[C@@H](NC(=O)c2n[nH]c(Cc4ccccc4)n2)CO3)c1 | > 100000 | inactive | 7.56 |  | 
24 |  |  | CN1C(=S)[C@@H](NC(=O)c2n[nH]c(Cc3ccccc3)n2)COc2ccc(C#CCc3ccccc3)cc21 | > 100000 | inactive | 7.84 |  | 
25 |  |  | CN1C(=O)[C@@H](NC(=O)c2n[nH]c(Cc3ccccc3)n2)COc2ccc(N3CC4(CCOCC4)C3)cc21 |  |  |  | > 9.00 | 
26 |  |  | COC(=O)c1ccccc1C#Cc1ccc2c(c1)N(C)C(=S)[C@@H](NC(=O)c1n[nH]c(Cc3ccccc3)n1)CO2 | > 100000 | inactive | 7.48 |  | 
27 |  |  | CN1C(=S)[C@@H](NC(=O)c2n[nH]c(Cc3ccccc3)n2)COc2ccc(C#Cc3ccccc3F)cc21 | > 100000 | inactive | 7.49 |  | 
28 |  |  | CN1C(=S)[C@@H](NC(=O)c2n[nH]c(Cc3ccccc3)n2)COc2ccc(C#Cc3cccc(OC(F)(F)F)c3)cc21 | > 100000 | inactive | 7.57 |  | 
29 | 7.04 |  | CN1C(=S)[C@@H](NC(=O)c2n[nH]c(Cc3ccccc3)n2)COc2ccc(C#Cc3ccc(C#N)cc3)cc21 | > 100000 | inactive | 8.20 |  | 
30 |  |  | CN1C(=S)[C@@H](NC(=O)c2n[nH]c(Cc3ccccc3)n2)COc2ccccc21 | > 100000 |  |  |  | 
31 | 7.11 |  | CN1C(=S)[C@@H](NC(=O)c2n[nH]c(Cc3ccccc3)n2)COc2ccc(C#Cc3ccccc3C#N)cc21 | > 100000 | inactive | 8.11 |  | 
32 | 6.80 |  | COC(=O)c1cccc(C#Cc2ccc3c(c2)N(C)C(=S)[C@@H](NC(=O)c2n[nH]c(Cc4ccccc4)n2)CO3)c1 | > 100000 | inactive | 7.97 |  | 
33 |  | < 5 | CN1C(=O)C(Cc2c[nH]c3ccccc23)NC1=S (stereo unspecified) [NECROSTATIN] |  |  |  |  | 
34 |  |  | CN1C(=S)[C@@H](NC(=O)c2n[nH]c(Cc3ccccc3)n2)COc2ccc(C#Cc3ccc(Cl)cc3)cc21 | > 100000 | inactive | 7.50 |  | 
